# Target: T1, recombinant human LTA4 hydrolase (rhLTA4H) (Homo sapiens, UniProt P09960)
# T1 construct: made in house; host or cells: Spodoptera frugiperda (Sf-9) cells, baculovirus (pFastBac1)
# T1 sequence (P09960 1-611): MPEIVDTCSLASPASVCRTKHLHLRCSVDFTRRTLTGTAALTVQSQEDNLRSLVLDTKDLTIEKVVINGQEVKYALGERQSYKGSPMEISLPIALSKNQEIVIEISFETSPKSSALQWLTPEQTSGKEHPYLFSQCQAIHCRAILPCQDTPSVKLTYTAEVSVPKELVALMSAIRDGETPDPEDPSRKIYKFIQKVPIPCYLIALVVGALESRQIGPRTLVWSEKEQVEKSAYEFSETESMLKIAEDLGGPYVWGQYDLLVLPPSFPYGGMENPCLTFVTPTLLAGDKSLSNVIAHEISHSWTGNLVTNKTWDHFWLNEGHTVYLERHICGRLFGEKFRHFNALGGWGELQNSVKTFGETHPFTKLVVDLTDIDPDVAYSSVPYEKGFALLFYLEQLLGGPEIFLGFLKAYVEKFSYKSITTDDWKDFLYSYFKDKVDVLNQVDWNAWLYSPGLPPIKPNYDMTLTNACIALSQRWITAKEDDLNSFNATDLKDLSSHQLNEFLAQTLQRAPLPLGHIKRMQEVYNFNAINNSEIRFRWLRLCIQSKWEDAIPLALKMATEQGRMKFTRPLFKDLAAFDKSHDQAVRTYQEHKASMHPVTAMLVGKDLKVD
# Assay: Recombinant Human LTA4 Hydrolase Assay for LTA4 Hydrolase Inhibitor Activity
# Type: biochemical
# Details: average of results obtained; LTB4 quantified by enzyme-linked immunoassay
# Procedure, shortened: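 Baculovirus/Sf-9-expressed human LTA4 hydrolase (36 ng) preincubated with compound 10 min at rt in 0.1 M potassium phosphate pH 7.4, 5 mg/mL fatty-acid-free BSA. Reaction started with 9 ng LTA4 free acid, run 10 min at rt; LTB4 measured by enzyme immunoassay, IC50 from 4-parameter fit.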
row,Compound,Ki
1,"CS(=O)(=O)N1C[C@@H]2C[C@H]1CN2Cc1ccc(Oc2nc3cc(Cl)ccc3s2)cc1 [Example 206, (S,S)-5-Chloro-2-[4-(5-methanesulfonyl-2,5-diaza-bicyclo[2.2.1]hept-2-ylmethyl)-phenoxy]-benzothiazole]",1100 nM
2,"CC(=O)N1C[C@@H]2C[C@H]1CN2Cc1ccc(Oc2nc3c(F)cccc3s2)cc1 [Example 207, (S,S)-1-{5-[4-(4-Fluoro-benzothiazol-2-yloxy)-benzyl]-2,5-diaza-bicyclo[2.2.1]hept-2-yl}-ethanone]",6 nM
3,"CC(=O)N1[C@@H]2CC[C@H]1C[C@H](NCCc1ccc(Oc3nc4ccc(F)cc4s3)cc1)C2 [Example 209, meso-exo-1-(3-{2-[4-(6-Fluoro-benzothiazol-2-yloxy)-phenyl]-ethylamino}-8-aza-bicyclo[3.2.1]oct-8-yl)-ethanone]",69 nM
4,"CS(=O)(=O)N1CC2CCC(C1)N2CCc1ccc(Oc2nc3cc(F)ccc3s2)cc1 [Example 210, meso-5-Fluoro-2-{4-[2-(3-methanesulfonyl-3,8-diaza-bicyclo[3.2.1]oct-8-yl)-ethyl]-phenoxy}-benzothiazole]",163 nM
5,"Cc1ccc2nc(Oc3ccc(CCN4C5CCC4CN(S(C)(=O)=O)C5)cc3)sc2c1 [Example 214, meso-2-{4-[2-(3-Methanesulfonyl-3,8-diaza-bicyclo[3.2.1]oct-8-yl)-ethyl]-phenoxy}-6-methyl-benzothiazole]",543 nM
6,"CS(=O)(=O)N[C@@H]1C[C@H]2CC[C@@H](C1)N2Cc1ccc(Oc2nc3cccc(Cl)c3s2)cc1 [Example 215, meso-exo-N-{8-[4-(7-Chloro-benzothiazol-2-yloxy)-benzyl]-8-aza-bicyclo[3.2.1]oct-3-yl}-methanesulfonamide]",90 nM
7,"CC(=O)N1C[C@H]2C[C@@H]1CN2CCOc1ccc(Oc2nc3cccc(F)c3s2)cc1 [Example 218, (R,R)-1-(5-{2-[4-(7-Fluoro-benzothiazol-2-yloxy)-phenoxy]-ethyl}-2,5-diaza-bicyclo[2.2.1]hept-2-yl)-ethanone]",20 nM
8,"CS(=O)(=O)N1C[C@H]2C[C@@H]1CN2CCOc1ccc(Oc2nc3ccccc3s2)cc1 [Example 223, (R,R)-2-{4-[2-(5-Methanesulfonyl-2,5-diaza-bicyclo[2.2.1]hept-2-yl)-ethoxy]-phenoxy}-benzothiazole]",64 nM
9,"CC(=O)N1[C@@H]2CC[C@H]1C[C@@H](NCCc1ccc(Oc3nc4ccc(Cl)cc4s3)cc1)C2 [Example 224, meso-endo-1-(3-{2-[4-(6-Chloro-benzothiazol-2-yloxy)-phenyl]-ethylamino}-8-aza-bicyclo[3.2.1]oct-8-yl)-ethanone]",33 nM
10,"NC(=O)N1[C@@H]2CC[C@H]1C[C@@H](NCc1ccc(Oc3nc4cccc(F)c4s3)cc1)C2 [Example 226, meso-endo-3-[4-(7-Fluoro-benzothiazol-2-yloxy)-benzylamino]-8-aza-bicyclo[3.2.1]octane-8-carboxylic acid amide]",90 nM
11,"NC(=O)N[C@@H]1C[C@H]2CC[C@@H](C1)N2Cc1ccc(Oc2nc3c(Cl)cccc3s2)cc1 [Example 229, meso-exo-{8-[4-(4-Chloro-benzothiazol-2-yloxy)-benzyl]-8-aza-bicyclo[3.2.1]oct-3-yl}-urea]",20 nM
12,"CS(=O)(=O)N1C[C@@H]2C[C@H]1CN2Cc1ccc(Oc2nc3ccc(F)cc3s2)cc1 [Example 230, (S,S)-6-Fluoro-2-[4-(5-methanesulfonyl-2,5-diaza-bicyclo[2.2.1]hept-2-ylmethyl)-phenoxy]-benzothiazole]",397 nM
13,"CS(=O)(=O)N1C[C@@H]2C[C@H]1CN2CCc1ccc(Oc2nc3cccc(F)c3s2)cc1 [Example 232, (S,S)-7-Fluoro-2-{4-[2-(5-methanesulfonyl-2,5-diaza-bicyclo[2.2.1]hept-2-yl)-ethyl]-phenoxy}-benzothiazole]",72 nM

# The remaining lines, values ahead:
row,Ki,Compound
1,293 nM,"CS(=O)(=O)N1C[C@H]2C[C@@H]1CN2CCOc1ccc(Oc2nc3c(Cl)cccc3s2)cc1 [Example 203, (R,R)-4-Chloro-2-{4-[2-(5-methanesulfonyl-2,5-diaza-bicyclo[2.2.1]hept-2-yl)-ethoxy]-phenoxy}-benzothiazole]"
2,5 nM,"NC(=O)N[C@@H]1C[C@H]2CC[C@@H](C1)N2CCOc1ccc(Oc2nc3c(F)cccc3s2)cc1 [Example 204, meso-exo-(8-{2-[4-(4-Fluoro-benzothiazol-2-yloxy)-phenoxy]-ethyl}-8-aza-bicyclo[3.2.1]oct-3-yl)-urea]"
3,394 nM,"CS(=O)(=O)N1[C@@H]2CC[C@H]1C[C@H](NCc1ccc(Oc3nc4ccc(F)cc4s3)cc1)C2 [Example 205, meso-exo-[4-(6-Fluoro-benzothiazol-2-yloxy)-benzyl]-(8-methanesulfonyl-8-aza-bicyclo[3.2.1]oct-3-yl)-amine]"
4,22 nM,"CS(=O)(=O)N[C@H]1C[C@H]2CC[C@@H](C1)N2Cc1ccc(Oc2nc3cc(F)ccc3s2)cc1 [Example 208, meso-endo-N-{8-[4-(5-Fluoro-benzothiazol-2-yloxy)-benzyl]-8-aza-bicyclo[3.2.1]oct-3-yl}-methanesulfonamide]"
5,159 nM,"CS(=O)(=O)N1CC2CCC(C1)N2CCOc1ccc(Oc2nc3cccc(F)c3s2)cc1 [Example 211, meso-7-Fluoro-2-{4-[2-(3-methanesulfonyl-3,8-diaza-bicyclo[3.2.1]oct-8-yl)-ethoxy]-phenoxy}-benzothiazole]"
6,248 nM,"NC(=O)N1[C@@H]2CC[C@H]1C[C@H](NCCc1ccc(Oc3nc4c(F)cccc4s3)cc1)C2 [Example 212, meso-exo-3-{2-[4-(4-Fluoro-benzothiazol-2-yloxy)-phenyl]-ethylamino}-8-aza-bicyclo[3.2.1]octane-8-carboxylic acid amide]"
7,20 nM,"CS(=O)(=O)N1[C@@H]2CC[C@H]1C[C@H](NCCOc1ccc(Oc3nc4c(F)cccc4s3)cc1)C2 [Example 213, meso-exo-{2-[4-(4-Fluoro-benzothiazol-2-yloxy)-phenoxy]-ethyl}-(8-methanesulfonyl-8-aza-bicyclo[3.2.1]oct-3-yl)-amine]"
8,100 nM,"CC(=O)N[C@H]1C[C@H]2CC[C@@H](C1)N2CCOc1ccc(Oc2nc3cc(F)ccc3s2)cc1 [Example 216, meso-endo-N-(8-{2-[4-(5-Fluoro-benzothiazol-2-yloxy)-phenoxy]-ethyl}-8-aza-bicyclo[3.2.1]oct-3-yl)-acetamide]"
9,30 nM,"CS(=O)(=O)N1[C@@H]2CC[C@H]1C[C@H](NCCOc1ccc(Oc3nc4c(F)cccc4s3)cc1)C2 [Example 217, meso-exo-{2-[4-(4-Fluoro-benzothiazol-2-yloxy)-phenoxy]-ethyl}-(8-methanesulfonyl-8-aza-bicyclo[3.2.1]oct-3-yl)-amine]"
10,15 nM,"NC(=O)N[C@H]1C[C@H]2CC[C@@H](C1)N2CCOc1ccc(Oc2nc3cc(F)ccc3s2)cc1 [Example 219, meso-endo-(8-{2-[4-(5-Fluoro-benzothiazol-2-yloxy)-phenoxy]-ethyl}-8-aza-bicyclo[3.2.1]oct-3-yl)-urea]"
11,445 nM,"Cc1ccc2nc(Oc3ccc(OCCN[C@H]4C[C@H]5CC[C@@H](C4)N5S(C)(=O)=O)cc3)sc2c1 [Example 220, meso-endo-(8-Methanesulfonyl-8-aza-bicyclo[3.2.1]oct-3-yl)-{2-[4-(6-methyl-benzothiazol-2-yloxy)-phenoxy]-ethyl}-amine]"
12,802 nM,"NC(=O)N1[C@@H]2CC[C@H]1C[C@@H](NCCOc1ccc(Oc3nc4c(Cl)cccc4s3)cc1)C2 [Example 221, meso-endo-3-{2-[4-(4-Chloro-benzothiazol-2-yloxy)-phenoxy]-ethylamino}-8-aza-bicyclo[3.2.1]octane-8-carboxylic acid amide]"
13,130 nM,"CS(=O)(=O)N[C@H]1C[C@H]2CC[C@@H](C1)N2CCOc1ccc(Oc2nc3ccc(Cl)cc3s2)cc1 [Example 222, meso-endo-N-(8-{2-[4-(6-Chloro-benzothiazol-2-yloxy)-phenoxy]-ethyl}-8-aza-bicyclo[3.2.1]oct-3-yl)-methanesulfonamide]"
14,116 nM,"CS(=O)(=O)N[C@@H]1C[C@H]2CC[C@@H](C1)N2CCOc1ccc(Oc2nc3ccc(Cl)cc3s2)cc1 [Example 225, meso-exo-N-(8-{2-[4-(6-Chloro-benzothiazol-2-yloxy)-phenoxy]-ethyl}-8-aza-bicyclo[3.2.1]oct-3-yl)-methanesulfonamide]"
15,8 nM,"CC(=O)N[C@@H]1C[C@H]2CC[C@@H](C1)N2CCOc1ccc(Oc2nc3ccc(F)cc3s2)cc1 [Example 227, meso-exo-N-(8-{2-[4-(6-Fluoro-benzothiazol-2-yloxy)-phenoxy]-ethyl}-8-aza-bicyclo[3.2.1]oct-3-yl)-acetamide]"
16,17 nM,"CS(=O)(=O)N[C@@H]1C[C@H]2CC[C@@H](C1)N2CCc1ccc(Oc2nc3ccc(F)cc3s2)cc1 [Example 231, meso-exo-N-(8-{2-[4-(6-Fluoro-benzothiazol-2-yloxy)-phenyl]-ethyl}-8-aza-bicyclo[3.2.1]oct-3-yl)-methanesulfonamide]"

# From patent US8344008B2 (Janssen Pharmaceutica NV, priority 2007, dated 2013)
